The source of these data is US20240057587A1, “ORGANIC AMMONIUM SALT AND HYDROGEN-BONDING MATERIAL TREATMENT AGENT USING SAME” (MIYOSHI OIL & FAT CO.,LTD., priority 2019, published 2024).

Like-named read-outs stand apart in the source and are kept apart here.

The conditions of series [1]: 0.25 g compound, 0.50 g water, 0.10 g barium titanate; for Barium titanate dispersibility: visual.
The target of series [2] is T1, cytochrome C (Equus caballus, UniProt P00004).
T1 construct: a reagent produced by NACALAI TESQUE, INC; (Horse Heart, molecular weight 12384) was used; purchased NACALAI TESQUE, INC; host or cells: horse heart (tissue origin)
As to the kind of experiment: Protein long-term stability (IR and UV spectrum), solid sample. Also noted: species or system Horse. The conditions noted are these: cytochrome C, solid sample, 40° C., 80% RH, after 30 days.

Series [3] addresses T2, urease (Canavalia ensiformis, UniProt P07374). It is filed as biochemical, sword bean. Conditions: solid sample, 40° C., 80% RH, after 30 days.
For series [4] the following is noted: for Redispersibility Titanium oxide: dispersion liquid dried at 50° C. under reduced pressure for three hours, 0.50 g water added, remixed, visual.
Series [5] is described as follows: Metal oxide dispersibility test (titanium oxide). The conditions noted are these: 0.25 g compound, 0.50 g water, 0.10 g titanium oxide (IV); for Titanium oxide dispersibility: visual. The class given is physicochemical.
Series [6] in a line: Organic dye dispersibility test. Conditions: 0.2 g compound, 0.7 g water; for Dye dispersibility: 0.1 g Vali Fast Black 3830, ultrasonic dispersion, after 24 hours, visual. It is filed as physicochemical.
In another series the test system is DNA. As to the kind of experiment: DNA long-term stability, 50% aqueous solution. Conditions: 40° C., 80% RH.
Series [7] in a line: Carbon nanotube dispersibility test. Conditions: 0.25 g compound, 0.75 g water, 0.025 g carbon nanotubes; for Carbon nanotube dispersibility: visual. It is filed as physicochemical.
Series [8] has as its target T1, cytochrome C. As to the kind of experiment: Protein long-term stability, 50% aqueous solution. More on the design: species or system Horse. The conditions noted are these: cytochrome C in 50 wt % aqueous solution of compound; 40° C.; after 30 days; 1:1. As for the experimental part:
At first, changes in amide absorption by IR spectrum were precisely observed, and there were confirmed the higher-order structures of protein (turn, α-helix, random coil, β-sheet). The amide I region (1,600 to 1,700 cm^−1) and the amide II region (1,500 to 1,600 cm^−1) were measured by ATR method using a Fourier transform infrared spectrophotometer (FT/IR-6100 by JASCO Corporation), and peaks were then detected based on a difference(s) between a cytochrome C-free organic ammonium salt sample (blank) and a cytochrome C-containing organic ammonium salt sample (sample).
Further, the activity state of cytochrome C (Fe^2+: reduced form, Fe^3+: oxidized form) was confirmed via absorptions in UV spectrum. The measurement was conducted using an ultraviolet-visible spectrophotometer and a quartz cell having an optical path width of 2 mm, immediately after diluting the cytochrome C-containing organic ammonium salt sample to 1% with a 50 mM phosphate buffer of pH 7.4 (prepared using 50 mM potassium dihydrogen phosphate and 50 mM dipotassium hydrogen phosphate).

The conditions of series [9]: for Redispersibility Zirconium oxide: dispersion liquid dried at 50° C. under reduced pressure for three hours, 0.50 g water added, remixed, visual.
The conditions of series [10]: for Redispersibility Dye: Vali Fast Black 3830 dispersion liquid dried at 50° C. under reduced pressure for three hours, 0.7 g water added, remixed, visual.
Series [11] is described as follows: Metal oxide dispersibility test (zirconium oxide). The class given is physicochemical. The conditions noted are these: 0.25 g compound, 0.50 g water, 0.10 g zirconium oxide (IV); for Zirconium oxide dispersibility: visual.
Series [12] concerns the target T2, urease. It is filed as biochemical, sword bean. Conditions: urease, 40° C., 80% RH, after 30 days, 1:1; for Enzyme activity retention rate (%) (after 30 days) Stabilizer:Enzyme = 1:1, Mixed by mortar: solid sample mixed by mortar; for Enzyme activity retention rate (%) (after 30 days) Stabilizer:Enzyme = 1:1, Solvent distilled away from dissolution solution: solid sample.

The conditions of series [13]: 0.25 g compound, 0.50 g water, 0.10 g zinc oxide; for Zinc oxide dispersibility: visual.
Series [14] deals with T2, urease. It is filed as biochemical, sword bean. The conditions noted are these: urease in 50 wt % aqueous solution of compound; 40° C., 80% RH; after 30 days; Stabilizer:Enzyme = 1:1.

T2 sequence (P07374 whole entry, looked up): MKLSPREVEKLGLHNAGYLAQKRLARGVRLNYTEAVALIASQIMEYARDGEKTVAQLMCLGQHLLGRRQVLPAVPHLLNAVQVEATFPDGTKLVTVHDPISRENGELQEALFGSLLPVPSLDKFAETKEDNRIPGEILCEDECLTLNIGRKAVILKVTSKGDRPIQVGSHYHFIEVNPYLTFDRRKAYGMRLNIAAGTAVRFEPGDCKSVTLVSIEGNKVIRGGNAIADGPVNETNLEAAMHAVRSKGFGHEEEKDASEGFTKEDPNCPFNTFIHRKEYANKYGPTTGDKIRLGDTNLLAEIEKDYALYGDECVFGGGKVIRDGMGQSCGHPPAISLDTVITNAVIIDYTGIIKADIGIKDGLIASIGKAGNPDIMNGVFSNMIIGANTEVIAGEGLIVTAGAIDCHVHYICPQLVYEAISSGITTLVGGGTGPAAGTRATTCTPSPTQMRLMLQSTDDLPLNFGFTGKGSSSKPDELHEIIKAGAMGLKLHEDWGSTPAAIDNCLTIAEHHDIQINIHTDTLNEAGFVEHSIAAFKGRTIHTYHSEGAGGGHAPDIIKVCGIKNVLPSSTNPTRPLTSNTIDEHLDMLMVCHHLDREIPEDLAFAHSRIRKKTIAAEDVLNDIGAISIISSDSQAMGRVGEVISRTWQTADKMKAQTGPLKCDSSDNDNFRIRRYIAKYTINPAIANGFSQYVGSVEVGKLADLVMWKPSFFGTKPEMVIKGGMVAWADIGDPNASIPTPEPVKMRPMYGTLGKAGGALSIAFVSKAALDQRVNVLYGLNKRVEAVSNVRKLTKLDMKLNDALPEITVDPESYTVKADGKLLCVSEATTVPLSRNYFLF
T1 sequence (P00004 whole entry): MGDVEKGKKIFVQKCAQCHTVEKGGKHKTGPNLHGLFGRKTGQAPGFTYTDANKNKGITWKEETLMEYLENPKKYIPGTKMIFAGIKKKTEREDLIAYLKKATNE

Turning to `NC(CO)(CO)CO` [Working example 48], the Barium titanate dispersibility entry in series [1] is listed as “○ ○ ○ ○”. On cytochrome C [2], the “Protein long-term stability (after 30 days) Stabilizer: Protein = 0.1:1” value (shortened to “Protein long-term stability … Protein = 0.1:1”) is “◯”, the “Protein long-term stability (after 30 days) Stabilizer: Protein = 1:1” value is “◯” and the “Protein long-term stability (after 30 days) Stabilizer: Protein = 10:1” value (“Protein long-term stability … Protein = 10:1” below) is listed as “◯”. Besides, on urease [3], the “Enzyme activity retention rate(%) (after 30 days) Stabilizer: Enzyme = 0.1:1” value stood at 18%, the “Enzyme activity retention rate(%) (after 30 days) Stabilizer: Enzyme = 1:1” value (“Enzyme activity retention rate(%) … Enzyme = 1:1” for short) stood at 48% and the “Enzyme activity retention rate(%) (after 30 days) Stabilizer: Enzyme = 10:1” value is recorded as 52%. Besides, in [4], the “Redispersibility Titanium oxide” value is on record as “○ ○ ○ ○”. The Titanium oxide dispersibility entry in series [5] was “○ ○ ○ ○”. In addition, in [6], the Dye dispersibility entry is recorded as “○ ○ ○ ○”. The “DNA long-term stability (after 30 days) Stabilizer: DNA = 1:1” value (“DNA long-term stability” below) with DNA is “○ ○”. Also, the Carbon nanotube dispersibility result in series [7] is reported as “○ ○”. The “Protein long-term stability (after 30 days) Stabilize:Protein = 1:1” value on cytochrome C [8] was “○”. The “Redispersibility Zirconium oxide” value in [9] is on record as “○ ○ ○ ○”. Also, in series [10], the “Redispersibility Dye” value is reported as “○ ○ ○ ○”. Also, the Zirconium oxide dispersibility entry in series [11] is “○ ○ ○ ○”. On urease [12], the “Enzyme activity retention rate (%) (after 30 days) Stabilizer:Enzyme = 1:1, Mixed by mortar” value (“Enzyme activity retention rate (%) … by mortar” below) is reported as 9% and the “Enzyme activity retention rate (%) (after 30 days) Stabilizer:Enzyme = 1:1, Solvent distilled away from dissolution solution” value came to 48%. Further, the Zinc oxide dispersibility entry in series [13] was “○ ○ ○ ○”. Besides, at urease [14], the “Enzyme activity retention rate(%) … Enzyme = 1:1” value was 30%.

For `CCCC[N+](CCCC)(CCCC)CCCC.[Br-]` [Comparative example 12, tetra-n-butylammonium bromide, reference compound], the “dispersed state of barium titanate (visual)” value in series [1] was “barium titanate did not disperse, but immediately precipitated”. Besides, the “dispersed state after redispersion (visual)” value is recorded as “precipitates were observed immediately after performing mixing with the mixer” in series [4] (dried titanium oxide dispersion, 0.50 g of water added); “precipitates were observed immediately after performing mixing with the mixer” in series [9] (dried zirconium oxide dispersion, 0.50 g of water added); “precipitates were observed immediately after performing mixing with the mixer” in series [10] (dried Vali Fast Black 3830 dispersion, 0.7 g of water added). Moreover, the “dispersed state of titanium oxide (visual)” value in series [5] is listed as “a low dispersibility was observed as titanium oxide had precipitated”. The “mixed and dispersed state of organic dye after 24 hours (visual)” value in [6] (0.1 g Vali Fast Black 3830, ultrasonic dispersion) is recorded as “the organic dye did not disperse, but precipitated”. Further, the “dispersed state of carbon nanotubes (visual)” value in [7] is listed as “the carbon nanotubes did not disperse, but precipitated”. Further, in [11], the “dispersed state of zirconium oxide (visual)” value was “zirconium oxide immediately precipitated, and therefore did not disperse”. Further, in series [13], the “dispersed state of zinc oxide (visual)” value is listed as “zinc oxide did not disperse, but immediately precipitated”.

On to `NC(CO)CO` [Working example 26], for which, on cytochrome C [2], the “Protein long-term stability … Protein = 0.1:1” value is on record as “◯”, the “Protein long-term stability (after 30 days) Stabilizer: Protein = 1:1” value is “◯” and the “Protein long-term stability … Protein = 10:1” value is recorded as “◯”. Also, at urease [3], the “Enzyme activity retention rate(%) (after 30 days) Stabilizer: Enzyme = 0.1:1” value is 10%, the “Enzyme activity retention rate(%) … Enzyme = 1:1” value worked out at 81% and the “Enzyme activity retention rate(%) (after 30 days) Stabilizer: Enzyme = 10:1” value came out at 25%. Moreover, in series [5], the Titanium oxide dispersibility entry was “○”. In addition, in series [6], the Dye dispersibility result was “○”. The “DNA long-term stability” value with DNA is “○”. Besides, the Carbon nanotube dispersibility result in [7] is reported as “○”. In addition, the “Protein long-term stability (after 30 days) Stabilize:Protein = 1:1” value on cytochrome C [8] is on record as “○”. Also, the Zirconium oxide dispersibility entry in series [11] was “○”. In addition, on urease [12], the “Enzyme activity retention rate (%) … by mortar” value is given as 13% and the “Enzyme activity retention rate (%) (after 30 days) Stabilizer:Enzyme = 1:1, Solvent distilled away from dissolution solution” value is 81%. Also, the “Enzyme activity retention rate(%) … Enzyme = 1:1” value on urease [14] worked out at 18%.

On to `CCC(N)(CO)CO` [Working example 27], for which, at cytochrome C [2], the “Protein long-term stability … Protein = 0.1:1” value is recorded as “◯ ◯”, the “Protein long-term stability (after 30 days) Stabilizer: Protein = 1:1” value is “◯ ◯” and the “Protein long-term stability … Protein = 10:1” value is recorded as “◯ ◯”. Also, at urease [3], the “Enzyme activity retention rate(%) (after 30 days) Stabilizer: Enzyme = 0.1:1” value was 8%, the “Enzyme activity retention rate(%) … Enzyme = 1:1” value is recorded as 74% and the “Enzyme activity retention rate(%) (after 30 days) Stabilizer: Enzyme = 10:1” value is 20%. Also, the Titanium oxide dispersibility result in series [5] is listed as “○ ○”. In addition, the “DNA long-term stability” value in the series with DNA is “○ ○”. Further, the Carbon nanotube dispersibility entry in series [7] is “○ ○”. In addition, at cytochrome C [8], the “Protein long-term stability (after 30 days) Stabilize:Protein = 1:1” value is “○ ○”. For the same molecule, the Zirconium oxide dispersibility result in [11] is “○ ○”. Moreover, at urease [12], the “Enzyme activity retention rate (%) … by mortar” value stood at 10% and the “Enzyme activity retention rate (%) (after 30 days) Stabilizer:Enzyme = 1:1, Solvent distilled away from dissolution solution” value was 74%. Also, the “Enzyme activity retention rate(%) … Enzyme = 1:1” value at urease [14] is 11%.

With `NC(CO)(CO)CO` [Working example 36], the Barium titanate dispersibility entry in series [1] was “○ ○ ○ ○”. On cytochrome C [2], the “Protein long-term stability … Protein = 0.1:1” value is recorded as “◯”, the “Protein long-term stability (after 30 days) Stabilizer: Protein = 1:1” value is “◯” and the “Protein long-term stability … Protein = 10:1” value is “◯”. Moreover, at urease [3], the “Enzyme activity retention rate(%) (after 30 days) Stabilizer: Enzyme = 0.1:1” value is reported as 27%, the “Enzyme activity retention rate(%) … Enzyme = 1:1” value was found to be 41% and the “Enzyme activity retention rate(%) (after 30 days) Stabilizer: Enzyme = 10:1” value was 45%. Moreover, the “Redispersibility Titanium oxide” value in [4] was “○ ○ ○ ○”. The Titanium oxide dispersibility entry in series [5] is listed as “○ ○ ○ ○”. Besides, the Dye dispersibility result in series [6] is on record as “○ ○ ○ ○”. Moreover, the “Protein long-term stability (after 30 days) Stabilize:Protein = 1:1” value on cytochrome C [8] is “○ ○ ○”. Moreover, the “Redispersibility Zirconium oxide” value in series [9] is reported as “○ ○ ○ ○”. In addition, the “Redispersibility Dye” value in series [10] was “○ ○ ○ ○”. Further, the Zirconium oxide dispersibility result in series [11] was “○ ○ ○ ○”. On urease [12], the “Enzyme activity retention rate (%) … by mortar” value was 7% and the “Enzyme activity retention rate (%) (after 30 days) Stabilizer:Enzyme = 1:1, Solvent distilled away from dissolution solution” value came to 41%. Also, in series [13], the Zinc oxide dispersibility result is “○ ○ ○ ○”. The “Enzyme activity retention rate(%) … Enzyme = 1:1” value on urease [14] stood at 39%.

For `CCC(N)(CO)CO` [Working example 35], on urease [3], the “Enzyme activity retention rate(%) (after 30 days) Stabilizer: Enzyme = 0.1:1” value came out at 9%, the “Enzyme activity retention rate(%) … Enzyme = 1:1” value is 16% and the “Enzyme activity retention rate(%) (after 30 days) Stabilizer: Enzyme = 10:1” value was 22%. Further, the “DNA long-term stability” value in the series with DNA is listed as “○ ○”. Moreover, on urease [12], the “Enzyme activity retention rate (%) … by mortar” value is listed as 0% and the “Enzyme activity retention rate (%) (after 30 days) Stabilizer:Enzyme = 1:1, Solvent distilled away from dissolution solution” value amounted to 16%. Also, at urease [14], the “Enzyme activity retention rate(%) … Enzyme = 1:1” value is on record as 10%.

In the case of `NC(CO)(CO)CO` [Working example 109], the Barium titanate dispersibility result in series [1] is “○ ○ ○ ○”. Also, the “Redispersibility Titanium oxide” value in [4] is “○ ○ ○ ○”. The Titanium oxide dispersibility result in series [5] was “○ ○ ○ ○”. In addition, in [6], the Dye dispersibility result is on record as “○ ○ ○ ○”. Also, the “Redispersibility Zirconium oxide” value in series [9] is on record as “○ ○ ○ ○”. In addition, in series [10], the “Redispersibility Dye” value is “○ ○ ○ ○”. In addition, in series [11], the Zirconium oxide dispersibility entry was “○ ○ ○ ○”. In [13], the Zinc oxide dispersibility result was “○ ○ ○ ○”.
